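Growth conditions: 96-well plates. Treatment: test compound, 48 hours, 5 concentrations. Analysis: linear interpolation between bracketing concentrations; unreached endpoints set to highest concentration. TGI: concentration producing complete growth inhibition.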

The record followed here is PubChem BioAssay (NCI).

Common to all, as to assay: inhibition of tumour cell growth, NCI panel, 48 h
The test system of test [1] is RXF 393 renal.
Test [2] deals with HOP-92 NSCLC.
Test [3] has as its system SK-MEL-5 melanoma.
Test [4] relates to IGROV1 ovarian.
The subject of test [5] is MCF7 breast.
Test [6] relates to SF-539 CNS.
Test [7] relates to UO-31 renal.
Test [8] deals with COLO 205 colon.
For test [9], the system named is HL-60(TB) leukemia.
Test [10] concerns M14 melanoma.
For test [11], the system named is SNB-75 CNS.
Test [12] has as its system UACC-62 melanoma.
Test [13] has as its system HOP-62 NSCLC.
Test [14] relates to NCI/ADR-RES ovarian.
In test [15] the test system is SK-MEL-28 melanoma.
In test [16] the test system is TK-10 renal.
Test [17] concerns OVCAR-3 ovarian.
The test system of test [18] is NCI-H226 lung.

For the compound `O=S(Cc1ccccc1)c1ccccc1Cn1cccc1` (centres undefined), the TGI in test [1], in test [2], in test [3], in test [4], in test [5] and in test [6] was > 100 µM throughout. For the same compound, the TGI in test [7], in test [8], in [9], in [10], in [11] and in test [12] was > 100 µM throughout. Further, the TGI in test [13], in test [14], in test [15], in test [16] and in test [17] was > 100 µM throughout.
On to `Cc1ccc(S(=O)(=O)N(CCN)c2cc3c4c(c2)Oc2cccc5c2C4c2c(cccc2O3)O5)cc1`, for which the TGI in test [2] is 70.8 µM; in test [3], 45.5 µM; in test [4], 23.7 µM; in test [5], 47.8 µM; in test [6], 50 µM; in [7] it was > 100 µM. Further, the TGI was 57.9 µM in test [8]; 24.8 µM in test [18]; 66.6 µM in test [10]; 25.1 µM in [11]; > 100 µM in [12]; 28.7 µM in [13]. The TGI was 22.5 µM in test [14], 66.3 µM in test [15], > 100 µM in [16] and 42.2 µM in test [17].
For `Cc1cccc2c(N)c3cccc(C(=O)NCC[N+](C)(C)Cc4ccccc4[N+](=O)[O-])c3nc12`, the TGI in test [1] was > 37.7 µM; in [2], 49.5 µM; in test [3], > 41.1 µM; in test [4], > 100 µM; in test [5], > 100 µM; in test [6], > 32.5 µM. Moreover, the TGI in test [7] is > 28.3 µM; in test [8] it was > 39.7 µM; in [18], > 100 µM; in test [10], > 40.3 µM; in test [11] it was 8.82 µM; in [12], > 19.7 µM. The TGI was > 41.4 µM in test [13]; > 37.1 µM in test [14]; > 71.1 µM in test [15]; > 20 µM in test [16]; > 91.4 µM in [17].
Regarding `S=C(NCCc1ccccn1)N/N=C(\c1ccccc1)c1ccccn1`, the TGI is 52.8 µM in test [1]; > 55.7 µM in test [2]; 40.2 µM in test [3]; > 100 µM in [5]; 27.1 µM in test [6]; 14.1 µM in test [7]. The TGI in test [8] is > 100 µM; in test [9], > 100 µM; in [10] it was > 100 µM; in test [11], > 78 µM; in test [12] it was > 24.4 µM; in [13] it was > 50.1 µM. Besides, the TGI in test [14] was 1.44 µM; in test [15] it was > 100 µM; in [16] it was > 100 µM; in test [17], > 100 µM.
Regarding `CCOC(=O)c1cc(=O)c2cccc3c2n1CCS3`, the TGI in test [2], in test [3], in test [4], in test [5], in test [6] and in [7] was > 100 µM in each case. For the same compound, the TGI in test [8], in test [18], in test [9], in [10], in test [11] and in [12] was > 100 µM each time. For the same compound, the TGI in test [13], in [14], in [15], in [16] and in test [17] was > 100 µM each time.
Turning to `COC(=O)CN(CC(=O)NCCNC(=O)OC(C)(C)C)C1CCCCC1N(CC(=O)OC)CC(=O)OC` (centres undefined), the TGI in test [3], in test [4], in test [5], in test [6], in test [7] and in test [8] was > 100 µM each time. The TGI in test [18], in test [9], in test [12], in test [13], in [14] and in [15] was > 100 µM throughout. Besides, the TGI in test [16] and in test [17] was > 100 µM each time.
In the case of `O=C(NC(CS)C(=O)O)c1c2ccccc2nc2ccccc12` (centres undefined), the TGI is > 100 µM in test [2]; 12.8 µM in test [3]; > 100 µM in [4]; > 100 µM in test [5]; > 100 µM in [6]; 43 µM in [7]. The TGI in [8] is 23.5 µM; in test [18], > 100 µM; in test [9], > 100 µM; in test [10] it was > 100 µM; in [11], > 100 µM; in test [12], > 100 µM. The TGI in test [13], in test [14], in test [15], in [16] and in test [17] was > 100 µM in each case.
`COCN1C(=O)[C@@H]2C[C@@H](O)CN2C(=O)c2ccccc21`: the TGI in [1], in [2], in test [3], in test [4], in test [5] and in [7] was > 100 µM each time. The TGI in test [8], in test [9], in test [10], in test [11], in [12] and in [13] was > 100 µM each time. Moreover, the TGI in [14], in test [15] and in [16] was > 100 µM each time.
